Earlier results as cited in patent publication US8598325B2, “Solid-phase microextraction coatings and methods for their preparation” (priority 2002, dated 2013).
Like-named read-outs stand apart in the source and are kept apart here.

Experiments:
[1] = at 25° C.
[2] = not given; remark: listed apart in the source

| SMILES | LogP (pH 7) | Vapour Pressure [1] | Sol. in water [2] | LogP (at pH 7, 20° C.) |
| --- | --- | --- | --- | --- |
| CCCCC(O)(Cn1cncn1)c1ccc(Cl)cc1Cl (centres unmarked) [Hexaconazole, hexaconazole] | 3.9 | – | – | – |
| CCCC(Cn1cncn1)c1ccc(Cl)cc1Cl (centres unmarked) [Penconazole, penconazole] | 3.72 | 0.366 mPa | 73 mg/L | – |
| CC(C)(C)C(=O)C(Oc1ccc(Cl)cc1)n1cncn1 (centres unmarked) [Triadimefon, triadimefon] | – | 0.02 mPa | 70 mg/L | 3.18 |
| CC(C)(C)C(O)C(Oc1ccc(Cl)cc1)n1cncn1 (centres unmarked) [Triadimenol, triadimenol] | 3.18 | – | – | – |
